Results on 24 compounds are retold here after patent US9376442B2, “Methylpyrrolopyrimidinecarboxamides” (Takeda GmbH, priority 2009, dated 2016).

This assay deals with T1, PDE5A1 (Homo sapiens, UniProt O76074).
T1 construct: from tissue; host or cells: human platelets from fresh donor blood (10,000 x g supernatant of sonicated lysate)
As to the kind of experiment: Inhibition of type 5 phosphodiesterase (PDE5) activity, modified SPA test with human platelet lysate. The format is biochemical. Conditions: 0.5 μM cGMP, read-out: PDE5A1 inhibitory values [measured as −log IC50 (mol/l)] (converted). An outline of the steps: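 Scintillation proximity assay with [3H]cGMP tracer at 0.5 μM total cGMP, stopped after 15 min with beads containing IBMX. PDE3 and PDE2 activities suppressed with motapizone (1 μM) and a PDE2 inhibitor (10 nM). Human platelet supernatant served as the enzyme, with compound preincubated 5 min at 37° C; IC50 values from concentration-effect curves.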

For the compound `Cc1cc(-c2ncnc3c(C(=O)N[C@H]4CC[C@H](NC(=O)CO)CC4)c(C)[nH]c23)c(OCC2CC2)cc1F` [Example F77, 4-[2-(Cyclopropylmethoxy)-4-fluoro-5-methylphenyl]-N-{trans-4-[(hydroxyacetyl)amino]cyclohexyl}-6-methyl-5H-pyrrolo[3,2-d]pyrimidine-7-carboxamide], the IC50 is below 1 nM. Take `Cc1cc(-c2ncnc3c(C(=O)N[C@H]4CC[C@H](NC(=O)[C@H](C)O)CC4)c(C)[nH]c23)c(OCC2CC2)cc1F` [Example F78, 4-[2-(Cyclopropylmethoxy)-4-fluoro-5-methylphenyl]-N-(trans-4-{[(2S)-2-hydroxypropanoyl]amino}cyclohexyl)-6-methyl-5H-pyrrolo[3,2-d]pyrimidine-7-carboxamide]: the IC50 is below 1 nM.

Turning to `Cc1cc(-c2ncnc3c(C(=O)N[C@H]4CC[C@@H](NC(=O)CO)CC4)c(C)[nH]c23)c(OCC2CC2)cc1F` [Example F79, 4-[2-(Cyclopropylmethoxy)-4-fluoro-5-methylphenyl]-N-{cis-4-[(hydroxyacetyl)amino]cyclohexyl}-6-methyl-5H-pyrrolo[3,2-d]pyrimidine-7-carboxamide], the IC50 was below 1 nM.

`Cc1cc(-c2ncnc3c(C(=O)N[C@H]4CC[C@@H](NC(=O)[C@H](C)O)CC4)c(C)[nH]c23)c(OCC2CC2)cc1F` [Example F80, 4-[2-(Cyclopropylmethoxy)-4-fluoro-5-methylphenyl]-N-(cis-4-{[(2S)-2-hydroxypropanoyl]amino}cyclohexyl)-6-methyl-5H-pyrrolo[3,2-d]pyrimidine-7-carboxamide]: the IC50 was below 1 nM. As to `COc1cc(OCC2CC2)c(-c2ncnc3c(C(=O)NC4CCN(C(=O)CO)CC4)c(C)[nH]c23)cc1F` [Example F83, 4-[2-(Cyclopropylmethoxy)-5-fluoro-4-methoxyphenyl]-N-(1-glycoloylpiperidin-4-yl)-6-methyl-5H-pyrrolo[3,2-d]pyrimidine-7-carboxamide], the IC50 was below 1 nM. Regarding `COc1cc(OCC2CC2)c(-c2ncnc3c(C(=O)NC4CCN(C(=O)[C@H](C)O)CC4)c(C)[nH]c23)cc1F` [Example F84, 4-[2-(Cyclopropylmethoxy)-5-fluoro-4-methoxyphenyl]-N-{1-[(2S)-2-hydroxypropanoyl]piperidin-4-yl}-6-methyl-5H-pyrrolo[3,2-d]pyrimidine-7-carboxamide], the IC50 is below 1 nM. Take `COc1cc(OCC2CC2)c(-c2ncnc3c(C(=O)N[C@H]4CC[C@H](NC(=O)CO)CC4)c(C)[nH]c23)cc1F` [Example F85, 4-[2-(Cyclopropylmethoxy)-5-fluoro-4-methoxyphenyl]-N-[trans-4-(glycoloylamino)cyclohexyl]-6-methyl-5H-pyrrolo[3,2-d]pyrimidine-7-carboxamide]: the IC50 was below 1 nM. Regarding `COc1cc(OCC2CC2)c(-c2ncnc3c(C(=O)N[C@H]4CC[C@H](NC(=O)[C@H](C)O)CC4)c(C)[nH]c23)cc1F` [Example F86, 4-[2-(Cyclopropylmethoxy)-5-fluoro-4-methoxyphenyl]-N-(trans-4-{[(25)-2-hydroxypropanoyl]amino}cyclohexyl)-6-methyl-5H-pyrrolo[3,2-d]pyrimidine-7-carboxamide], the IC50 is below 1 nM. In the case of `COc1cc(OCC2CC2)c(-c2ncnc3c(C(=O)N[C@H]4CC[C@@H](NC(=O)CO)CC4)c(C)[nH]c23)cc1F` [Example F87, 4-[2-(Cyclopropylmethoxy)-5-fluoro-4-methoxyphenyl]-N-[cis-4-(glycoloylamino)cyclohexyl]-6-methyl-5H-pyrrolo[3,2-d]pyrimidine-7-carboxamide], the IC50 is below 1 nM. As for `COc1cc(OCC2CC2)c(-c2ncnc3c(C(=O)N[C@H]4CC[C@@H](NC(=O)[C@H](C)O)CC4)c(C)[nH]c23)cc1F` [Example F88, 4-[2-(Cyclopropylmethoxy)-5-fluoro-4-methoxyphenyl]-N-(cis-4-{[(2S)-2-hydroxypropanoyl]amino}cyclohexyl)-6-methyl-5H-pyrrolo[3,2-d]pyrimidine-7-carboxamide], the figure is below 1 nM; as for `CCc1ccc(OCC2CC2)c(-c2ncnc3c(C(=O)NC4CCN(C(=O)CO)CC4)c(C)[nH]c23)c1` [Example F91], below 1 nM. Turning to `CCc1ccc(OCC2CC2)c(-c2ncnc3c(C(=O)NC4CCN(C(=O)[C@H](C)O)CC4)c(C)[nH]c23)c1` [Example F92, 4-[2-(Cyclopropylmethoxy)-5-ethylphenyl]-N-{1-[(2S)-2-hydroxypropanoyl]piperidin-4-yl}-6-methyl-5H-pyrrolo[3,2-d]pyrimidine-7-carboxamide], the IC50 was below 1 nM.

With `CC(=O)c1ccc(OCC2CC2)c(-c2ncnc3c(C(=O)NC4CCN(C(=O)CO)CC4)c(C)[nH]c23)c1` [Example F102, 4-[5-Acetyl-2-(cyclopropylmethoxy)phenyl]-N-[1-(hydroxyacetyl)piperidin-4-yl]-6-methyl-5H-pyrrolo[3,2-d]pyrimidine-7-carboxamide], the IC50 was below 1 nM. As for `CC(=O)c1ccc(OCC2CC2)c(-c2ncnc3c(C(=O)NC4CCN(C(=O)[C@H](C)O)CC4)c(C)[nH]c23)c1` [Example F103, 4-[5-Acetyl-2-(cyclopropylmethoxy)phenyl]-N-{1-[(2S)-2-hydroxypropanoyl]piperidin-4-yl}-6-methyl-5H-pyrrolo[3,2-d]pyrimidine-7-carboxamide], the figure is below 1 nM; as for `CC(=O)c1ccc(OCC2CC2)c(-c2ncnc3c(C(=O)N[C@H]4CC[C@H](NC(=O)CO)CC4)c(C)[nH]c23)c1` [Example F104, 4-[5-Acetyl-2-(cyclopropylmethoxy)phenyl]-N-{trans-4-[(hydroxyacetyl)amino]cyclohexyl}-6-methyl-5H-pyrrolo[3,2-d]pyrimidine-7-carboxamide], below 1 nM; as for `CC(=O)c1ccc(OCC2CC2)c(-c2ncnc3c(C(=O)N[C@H]4CC[C@H](NC(=O)[C@H](C)O)CC4)c(C)[nH]c23)c1` [Example F105, 4-[5-Acetyl-2-(cyclopropylmethoxy)phenyl]-N-(trans-4-{[(2S)-2-hydroxypropanoyl]amino}cyclohexyl)-6-methyl-5H-pyrrolo[3,2-d]pyrimidine-7-carboxamide], below 1 nM. `Cc1ccc(OCC2CC2)c(-c2nc(C)nc3c(C(=O)NC4CCN(C(=O)[C@H](C)O)CC4)c(C)[nH]c23)c1` [Example F107, 4-[2-(Cyclopropylmethoxy)-5-methylphenyl]-N-{1-[(2S)-2-hydroxypropanoyl]piperidin-4-yl}-2,6-dimethyl-5H-pyrrolo[3,2-d]pyrimidine-7-carboxamide]: the IC50 was below 1 nM. With `COc1cc(OCC2CC2)c(-c2nc(C)nc3c(C(=O)NC4CCN(C(=O)[C@H](C)O)CC4)c(C)[nH]c23)cc1F` [Example F108, 4-[2-(Cyclopropylmethoxy)-5-fluoro-4-methoxyphenyl]-N-{1-[(2S)-2-hydroxypropanoyl]piperidin-4-yl}-2,6-dimethyl-5H-pyrrolo[3,2-d]pyrimidine-7-carboxamide], the IC50 was below 1 nM.

For the compound `COc1cc(-c2nc(C)nc3c(C(=O)NC4CCN(C(=O)CO)CC4)c(C)[nH]c23)c(OCC2CC2)cc1F` [Example F109, 4-[2-(Cyclopropylmethoxy)-4-fluoro-5-methoxyphenyl]-N-[1-(hydroxyacetyl)piperidin-4-yl]-2,6-dimethyl-5H-pyrrolo[3,2-d]pyrimidine-7-carboxamide], the IC50 is below 1 nM.

Turning to `COc1cc(-c2nc(C)nc3c(C(=O)NC4CCN(C(=O)[C@H](C)O)CC4)c(C)[nH]c23)c(OCC2CC2)cc1F` [Example F110, 4-[2-(Cyclopropylmethoxy)-4-fluoro-5-methoxyphenyl]-N-{1-[(2S)-2-hydroxypropanoyl]piperidin-4-yl}-2,6-dimethyl-5H-pyrrolo[3,2-d]pyrimidine-7-carboxamide], the IC50 is below 1 nM.

Turning to `COc1cc(-c2ncnc3c(C(=O)N[C@@H]4CCN(C(=O)CO)C4)c(C)[nH]c23)c(OCC2CC2)cc1F` [Example F111, 4-[2-(Cyclopropylmethoxy)-4-fluoro-5-methoxyphenyl]-N-[(3R)-1-glycoloylpyrrolidin-3-yl]-6-methyl-5H-pyrrolo[3,2-d]pyrimidine-7-carboxamide], the IC50 is below 1 nM. Regarding `COc1cc(-c2ncnc3c(C(=O)N[C@@H]4CCN(C(=O)[C@H](C)O)C4)c(C)[nH]c23)c(OCC2CC2)cc1F` [Example F112, 4-[2-(Cyclopropylmethoxy)-4-fluoro-5-methoxyphenyl]-N-{(3R)-1-[(2S)-2-hydroxypropanoyl]pyrrolidin-3-yl}-6-methyl-5H-pyrrolo[3,2-d]pyrimidine-7-carboxamide], the IC50 is below 1 nM. As for `COc1cc(OCC2CC2)c(-c2ncnc3c(C(=O)N[C@@H]4CCN(C(=O)CO)C4)c(C)[nH]c23)cc1F` [Example F115, 4-[2-(Cyclopropylmethoxy)-5-fluoro-4-methoxyphenyl]-N-[(3R)-1-glycoloylpyrrolidin-3-yl]-6-methyl-5H-pyrrolo[3,2-d]pyrimidine-7-carboxamide], the figure is below 1 nM.

As to `COc1cc(OCC2CC2)c(-c2ncnc3c(C(=O)N[C@@H]4CCN(C(=O)[C@H](C)O)C4)c(C)[nH]c23)cc1F` [Example F116, 4-[2-(Cyclopropylmethoxy)-5-fluoro-4-methoxyphenyl]-N-{(3R)-1-[(2S)-2-hydroxypropanoyl]pyrrolidin-3-yl}-6-methyl-5H-pyrrolo[3,2-d]pyrimidine-7-carboxamide], the IC50 was below 1 nM.
